Experimental data published in patent US10106572B1, “Supramolecular hacky sacks (SHS), method of synthesis and applications thereof” (University of Puerto Rico, priority 2014, dated 2018).
Values joined by “and” are separate entries in the source; they are usually repeats but may differ in a detail not shown here. Equal values may be shown once. Blank lines part the entries; values can stand above or below the compound they belong to.

Experiments:
[1] = pKa estimation by UV-VIS absorbance at different pHs; type: physicochemical; conditions: UV absorbance at pH 5-7.5
Text: During the synthesis of derivatives ImAGhD2OH and ImAGpD2OH, an ImAG std (with a molecular structure as shown in FIG. 8) was constructed to obtain information of the pKa of the derivative by UV-VIS measurements. This allowed to study the effect of the functionality added in the 8ArG derivative. Derivative (E)-3-(1-methyl-1H-imidazol-2-yl)-1-phenylprop-2-en-1-one (ImAG std), with a chemical formula C13H12N2O, offers an alternative method to determine the pKa without having to perform the entire synthetic sequence for the corresponding compounds ImAGhD2OH and ImAGpD2OH. In the case of ImAG standard, the same procedure as above was followed, but the obtained solid was washed with ether and hexane. ImAG std was characterized as shown in FIG. 9 and FIG. 10 by using ^1H NMR and ^13C NMR, respectively. Yellow solid, mp (125.2-126.3) ° C. […]
Before the imidazole modification of ImAGpD2OH and ImAGhD2OH, chalcone imidazole standard derivative (E)-3-(1-methyl-1H-imidazol-2-yl)-1-phenylprop-2-en-1-one (ImAG std) was synthesized by the same aldol condensation method to obtain an estimation of the pKa by measuring the absorbance at different pHs in a Varian UV-visible spectrometer, Model Cary Bio-100 as shown in FIG. 14. For the transition pH measurement, Isothermal measurements at 26.0° C. were performed in a SPECTRAmax 340 microplate reader at 650 nm. […]

[2] = Isothermal turbidity, transition pH; type: physicochemical; conditions: for pKa: previously estimated, imidazole-containing ImAG
Protocol: (§1) Solutions of 0.650 mL of ImAGhD2OH were prepared at 5 mM with 4 M KI. In the case of ImAGpD2OH, the solutions prepared were 5 mM with 2 M KI. By following this procedure the following ratio is recommended between ImAGhD2OH (or ImAGpD2OH) with KI salt: 0-10 mM of ImAGhD2OH (or ImAGpD2OH) with 2-4 M KI. To dissolve the solids it was prepared a 0.1 M sodium acetate buffer for pH values of 5, 5.1, 5.2, 5.3, 5.4, 5.5, 5.6, 5.7, 5.8, 5.9. For pH 6-7, PBS from Fisher Scientific was used. The samples were put in the refrigerator (−10° C.) overnight (˜12 h) for equilibration. This sample concentration was used for turbidity experiments, DSC, and DLS experiments. The concentrations of the resulting assemblies of SGQ and f-SHS were calculated in terms of the molecular weights of monomeric 8ArG derivative ImAGpD2OH or ImAGhD2OH.
Before the imidazole modification of ImAGpD2OH and ImAGhD2OH, chalcone imidazole standard derivative (E)-3-(1-methyl-1H-imidazol-2-yl)-1-phenylprop-2-en-1-one (ImAG std) was synthesized by the same aldol condensation method to obtain an estimation of the pKa by measuring the absorbance at different pHs in a Varian UV-visible spectrometer, Model Cary Bio-100 as shown in FIG. 14. For the transition pH measurement, Isothermal measurements at 26.0° C. were performed in a SPECTRAmax 340 microplate reader at 650 nm. In these experiments 100 μL of sample was added in each well in triplicate for pH: 5, 5.1, 5.2, 5.3, 5.4, 5.5, 5.6, 5.7, 5.8, 5.9, 6.0, 6.5, 7.0 and 7.5. After the microplate wells were filled, the microplate was placed in the refrigerator (−10° C.) for equilibration. Afterwards, an 85% weighted curve fit was performed to the obtained graph. According to the standard experiments performed, the pKa of ImAG std is between 5.5 and 6.
Aside from the effect of the pH on the precise assembly of the nanoglobular SGQs, we observed, at 26° C., a pH-responsive phase transition where, at pH 5 the system is in solution, but changing it to pH 7 results in the solution becoming cloudy.

[3] = Turbidimetry studies, cloud-point temperature (Tcp); type: physicochemical
Protocol: as §1
This Tcp, which is measured by turbidimetry studies in UV-Vis, is the transition temperature to form the cluster of self-arranged supramolecular structures known as supramolecular hacky sacks (SHS). The turbidity measurements were performed at 650 nm using a Varian UV-visible spectrometer, Model Cary Bio-100. The heating rate was adjusted at 2.0° C./min using Cary temperature controller apparatus from Varian.

[4] = Differential scanning calorimetry (DSC) of SGQ assemblies; type: physicochemical; conditions: for Tt: LCST transition
Protocol: The ΔGcal and ΔScal values shown in this table correspond to those calculated using the values of Tt, Tm, and ΔHcal from the instrument. All ΔG values were calculated at a temperature of 20° C.
Differential Scanning calorimetry (DSC) analyses were performed on a VP-DSC Micro-Calorimeter from MicroCal and Origin (v.7) was used for data processing. For the experiment, the buffer was first degasified and the experiment was carried out as a blank in both sample and reference cell. Then, the sample was degasified, and the blank buffer in the sample cell to be substituted with sample was removed. Afterwards, the experiment was performed with a temperature ramp of 0° C.-80° C. for 4 cycles.

[5] = tested on: neuroblastoma (SH-SY5Y) cells; experiment: MTT viability assay; type: cell-based, human; conditions: 0.2 μM DOX
[6] = ImAGhD2OH, pH 5.0, calculated at 20° C.
[7] = ImAGhD2OH, pH 5.5, calculated at 20° C.
[8] = ImAGhD2OH, pH 6:0, calculated at 20° C.
[9] = ImAGhD2OH, pH 6.5, calculated at 20° C.
[10] = ImAGhD2OH, pH 7.0, calculated at 20° C.
[11] = ImAGpD2OH, pH 5.0, calculated at 20° C.
[12] = ImAGpD2OH, pH 7.0, calculated at 20° C.

- pKa [1]: 5.5 to 6
SMILES: Cn1ccnc1/C=C/C(=O)c1ccccc1 [ImAG std, (E)-3-(1-methyl-1H-imidazol-2-yl)-1-phenylprop-2-en-1-one]

- pKa [2]: 5.7
- transition pH ([2]; transmittance at 650 nm, 26° C., at 65% of the transmittance): around 5.7
- ΔTcp ([3]; between hSGQ and oSGQ): ≈ 25 °C
- cloud-point temperature (Tcp) ([3]; oSGQ, pH 6-7, 650 nm): around 4 °C
- cloud-point temperature (Tcp) ([3]; protonated hSGQ, at pHs and 5.5, 650 nm): 29 °C
- ΔHTm ([4]; ImAGhD2OH, pH 5.0): 64.32 kcal/mol
- ΔSTm ([4]; ImAGhD2OH, pH 5.0): 0.884 kcal/mol · ° C.
- ΔSTt ([4]; ImAGhD2OH, pH 5.0): 0.778 kcal/mol · ° C.
- Tt ([4]; ImAGhD2OH, pH 5.0, aqueous solution): 59.3 °C and 59.26 °C
- ΔGT: [4, 6]: 30.67 kcal/mol
- ΔGTm [4, 6]: 46.64 kcal/mol
- Tm ([4]; ImAGhD2OH, pH 5.0, melting of SGQ assembly): 72.7 °C and 72.72 °C
- ΔHTm ([4]; ImAGhD2OH, pH 5.5): 62.58 kcal/mol
- ΔHTt ([4]; ImAGhD2OH, pH 5.5): 146 kcal/mol and 146.0 kcal/mol
- ΔSTm ([4]; ImAGhD2OH, pH 5.5): 0.912 kcal/mol · ° C.
- ΔSTt ([4]; ImAGhD2OH, pH 5.5): 2.704 kcal/mol · ° C.
- Tt ([4]; ImAGhD2OH, pH 5.5, aqueous solution): 54.00 °C
- ΔGT: [4, 7]: 91.92 kcal/mol
- ΔGTm [4, 7]: 44.34 kcal/mol
- Tm ([4]; ImAGhD2OH, pH 5.5, melting of SGQ assembly): 68.64 °C
- ΔHTm ([4]; ImAGhD2OH, pH 6:0): 11.20 kcal/mol
- ΔHTt ([4]; ImAGhD2OH, pH 6:0): 0.123 kcal/mol
- ΔSTm ([4]; ImAGhD2OH, pH 6:0): 0.272 kcal/mol · ° C.
- ΔSTt ([4]; ImAGhD2OH, pH 6:0): 0.0216 kcal/mol · ° C.
- Tt ([4]; ImAGhD2OH, pH 6:0, aqueous solution): 5.702 °C
- ΔGT: [4, 8]: -0.309 kcal/mol
- ΔGTm [4, 8]: 5.76 kcal/mol
- Tm ([4]; ImAGhD2OH, pH 6:0, melting of SGQ assembly): 41.12 °C
- ΔHTm ([4]; ImAGhD2OH, pH 6.5): 11.80 kcal/mol
- ΔHTt ([4]; ImAGhD2OH, pH 6.5): 0.0522 kcal/mol
- ΔSTm ([4]; ImAGhD2OH, pH 6.5): 0.316 kcal/mol · ° C.
- ΔSTt ([4]; ImAGhD2OH, pH 6.5): 0.0106 kcal/mol · ° C.
- Tt ([4]; ImAGhD2OH, pH 6.5, aqueous solution): 4.938 °C
- ΔGT: [4, 9]: -0.160 kcal/mol
- ΔGTm [4, 9]: 5.48 kcal/mol
- Tm ([4]; ImAGhD2OH, pH 6.5, melting of SGQ assembly): 37.32 °C
- ΔHTm ([4]; ImAGhD2OH, pH 7.0): 15.42 kcal/mol
- ΔHTt ([4]; ImAGhD2OH, pH 7.0): 0.078 kcal/mol and 0.0784 kcal/mol
- ΔSTm ([4]; ImAGhD2OH, pH 7.0): 0.362 kcal/mol · ° C.
- ΔSTt ([4]; ImAGhD2OH, pH 7.0): 0.0144 kcal/mol · ° C.
- Tt ([4]; ImAGhD2OH, pH 7.0, aqueous solution): 5.4 °C and 5.449 °C
- ΔGT: [4, 10]: -0.210 kcal/mol
- ΔGTm [4, 10]: 8.18 kcal/mol
- Tm ([4]; ImAGhD2OH, pH 7.0, melting of SGQ assembly): 42.6 °C and 42.64 °C
- ΔTt ([4]; between oSGQ (pH 7) and hSGQ (pH 5)): ≈ 53.9 °C
SMILES: Cn1ccnc1/C=C/C(=O)c1cccc(-c2nc3c(=O)[nH]c(N)nc3n2[C@H]2C[C@H](OC(=O)CCCCCn3cc(COC(=O)C(C)(CO)CO)nn3)[C@@H](COC(=O)CCCCCn3cc(COC(=O)C(C)(CO)CO)nn3)O2)c1 [ImAGhD2OH]

- pKa [2]: 5.7
- Tcp ([3]; hSGQ at pH 5): 42 °C
- shift of ΔTcp ([3]; hSGQ at pH 5, relative to ImAGhD2OH): 13 °C
- Tcp ([3]; oSGQ at pH 7): 15 °C
- shift of ΔTcp ([3]; oSGQ at pH 7, relative to ImAGhD2OH): 10 °C
- ΔHTm ([4]; ImAGpD2OH, pH 5.0): 57.01 kcal/mol
- ΔHTt ([4]; ImAGpD2OH, pH 5.0): 8.41 kcal/mol
- ΔSTm ([4]; ImAGpD2OH, pH 5.0): 0.808 kcal/mol · ° C.
- ΔSTt ([4]; ImAGpD2OH, pH 5.0): 0.167 kcal/mol · ° C.
- Tt ([4]; ImAGpD2OH, pH 5.0, aqueous solution): 50.5 °C and 50.45 °C
- ΔGT: [4, 11]: 5.07 kcal/mol
- ΔGTm [4, 11]: 40.85 kcal/mol
- Tm ([4]; ImAGpD2OH, pH 5.0, melting of SGQ assembly): 70.52 °C
- ΔHTm ([4]; ImAGpD2OH, pH 7.0): 101.3 kcal/mol
- ΔHTt ([4]; ImAGpD2OH, pH 7.0): 4.36 kcal/mol
- ΔSTm ([4]; ImAGpD2OH, pH 7.0): 1.805 kcal/mol · ° C.
- ΔSTt ([4]; ImAGpD2OH, pH 7.0): 0.505 kcal/mol · ° C.
- Tt ([4]; ImAGpD2OH, pH 7.0, aqueous solution): 8.6 °C and 8.631 °C
- ΔGT: [4, 12]: -5.74 kcal/mol
- ΔGTm [4, 12]: 65.20 kcal/mol
- Tm ([4]; ImAGpD2OH, pH 7.0, melting of SGQ assembly): 56.11 °C
SMILES: Cn1ccnc1/C=C/C(=O)c1cccc(-c2nc3c(=O)[nH]c(N)nc3n2[C@H]2C[C@H](OC(=O)CCCCn3cc(COC(=O)C(C)(CO)CO)nn3)[C@@H](COC(=O)CCCCn3cc(COC(=O)C(C)(CO)CO)nn3)O2)c1 [ImAGpD2OH]

SMILES: COc1cccc2c1C(=O)c1c(O)c3c(c(O)c1C2=O)C[C@@](O)(C(=O)CO)C[C@@H]3O[C@H]1C[C@H](N)[C@H](O)[C@H](C)O1 [DOX, doxorubicin]
- cytotoxicity (MTT) [5]: cytotoxic
